Laboratory results: patent publication US20180340001A1, “Probes for 18F Positron Emission Tomography Imaging” (The Texas A&M University System, priority 2017, published 2018)

Assays:
[1] = MicroPET/CT imaging, in vivo stability in nude mice; details: for free [18F]-fluoride signal / release in vivo: murine model, up to 3 hours post-injection
Description: (§1) The stability of [^18F]-1 was first investigated in phosphate buffer solution (1×PBS). […] The stability of [^18F]-1 was further evaluated in a murine model. The probe [^18F]-1 (0.1 mCi) was injected into female nude mice and static microPET scans were obtained at 3 hours after the injection.
MicroPET imaging were acquired at 3 h post injection. For PET image acquiring, a female nude mouse was injected with 0.1 mCi of [^18F]-1 via the tail vein. At 3 hour post injection, the mouse was anesthetized using isoflurane (2% in oxygen), then placed into imaging chambers equipped with a heated coil to maintain body temperature and gas anesthesia. The static microPET acquisitions were then achieved and reconstructed for analysis.

[2] = pH 7.5
[3] = In vitro stability of [18F]-1 in 1×PBS by radio-HPLC; format: physicochemical; details: incubation time 3 hours
Description: as §1
After HPLC purification, [^18F]-1 was re-injected into HPLC for a radio profile standard. Then, the probe was added with 10×PBS to reconstruct the solution to IX PBS and 0.1 N NaOH to adjust pH to 7, respectively. After 1 hour and 3 hours incubation, a fraction of [^18F]-1 was injected into HPLC. The radio purity was calculated based on the integration of the product peak and other minor peaks.

Compound | free [18F]-fluoride signal / release in vivo ([1]; listed as IMe-PF5) | free fluoride signal / release of free fluoride [2] | hydrolytic stability (in words) [2] | radiochemical purity after incubation [3] [%] | localization in microPET/CT images ([1]; female nude mice, 0.1 mCi via tail vein, static scan 3 h after injection) | bone uptake ([1]; female nude mice, 0.1 mCi, 3 h post-injection) | route of clearance ([1]; female nude mice, 0.1 mCi, microPET/CT 3 h after injection) | free [18F]-fluoride signal / release in vivo [1] | free [18F]-fluoride signal / release in vivo ([1]; listed as 18F—PFS-carbene) | pseudo-first order rate constant (kobs) of hydrolysis [2] [min⁻¹]
Cn1cc[n+](C)c1[P-](F)(F)(F)(F)F [Compound 1, IMe-PF5] | not observed | not observed | highly water stable |  |  |  |  |  |  | 
Cn1cc[n+](C)c1[P-](F)(F)(F)(F)F [[^18F]-1] |  |  |  | > 98 | obvious localization in the bladder | No bone uptake was observed | cleared through the urinary track | insignificant | not observed | 
Cn1cc[n+](C)c1[P-](F)(F)(F)(F)c1ccccc1 [Compound 2, (NHC)PF4Ph] |  |  | highly water stable |  |  |  |  |  |  | 2.3e-05
